# Experimental data as given in PubChem BioAssay AID330 (DTP/NCI, 2004).
# Several values for one entry are separate records, joined by “and”; a condition that tells them apart may be missing. Equal entries are not always repeated. Inconclusive results and toxic doses are left out. Square brackets hold non-standard residues; d marks the D form. Peptide text beside a SMILES is read from it. * marks the point of attachment. ξ: configuration not given here. Cbz = O=C(OCc1ccccc1)*; ξT = CC(O)C(N)C(=O)O
# System: P388 leukemia ip, CD2F1 mice, survival T/C
# Test: NCI In Vivo Anticancer Drug Screen. Data for tumor model P388 Leukemia (intraperitoneal) in CD2F1 (CDF1) mice
# Details: endpoint: median survival time, higher = longer survival
# How it was run: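 Mice carrying the transplanted tumor received test compound or vehicle. Survival was recorded in each group, and the value is the treated-group measurement divided by that of the vehicle-treated control group.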
# [1] = dose: 12.5 mg/kg/injection, schedule: Q01DX009 (ip), vehicle: Klucel (hydroxypropylcellulose) (HPC)
# [2] = dose: 25.0 mg/kg/injection, schedule: Q01DX009 (ip), vehicle: Klucel (hydroxypropylcellulose) (HPC)
# [3] = dose: 25.0 mg/kg/injection, schedule: Q01DX009 (ip), vehicle: saline with Tween-80
# [4] = dose: 50.0 mg/kg/injection, schedule: Q01DX009 (ip), vehicle: saline with Tween-80
# [5] = dose: 100.0 mg/kg/injection, schedule: Q01DX009 (ip), vehicle: saline with Tween-80
# [6] = dose: 200.0 mg/kg/injection, schedule: Q01DX009 (ip), vehicle: saline with Tween-80
# [7] = dose: 60.0 mg/kg/injection, schedule: Q01DX005 (ip), vehicle: saline with Tween-80
# [8] = dose: 15.0 mg/kg/injection, schedule: Q01DX005 (ip), vehicle: saline with Tween-80
# [9] = dose: 50.0 mg/kg/injection, schedule: Q01DX009 (ip), vehicle: saline
# [10] = dose: 100.0 mg/kg/injection, schedule: Q01DX009 (ip), vehicle: saline
compound,measurement,setting,value
N=C(N)c1ccc(Nc2ccc(-c3cc4ccc(C(=N)N)cc4[nH]3)cc2)cc1,T/C,"dose: 1.87 mg/kg/injection, schedule: Q01DX005 (ip), vehicle: Klucel (hydroxypropylcellulose) (HPC)",174 % of control
same,T/C,"dose: 7.5 mg/kg/injection, schedule: Q01DX005 (ip), vehicle: Klucel (hydroxypropylcellulose) (HPC)",166 % of control and 194 % of control
CC12CCC3c4ccc(O)cc4CCC3C1C/C(=C\C(=O)O)C2=O (stereo not drawn),T/C,"dose: 3.13 mg/kg/injection, schedule: Q01DX009 (ip), vehicle: Klucel (hydroxypropylcellulose) (HPC)",104 % of control
same,T/C,"dose: 6.25 mg/kg/injection, schedule: Q01DX009 (ip), vehicle: Klucel (hydroxypropylcellulose) (HPC)",111 % of control
same,T/C,[1],108 % of control
same,T/C,[2],111 % of control
O=C1/C(=C/c2ccc(O)c(O)c2)Cc2ccccc21,T/C,[3],102 % of control
same,T/C,[4],103 % of control
same,T/C,[5],105 % of control
same,T/C,[6],103 % of control
C1CC[N-]CC1.C1CC[N-]CC1.[Cl][Pt+2][Cl],T/C,"dose: 25.0 mg/kg/injection, schedule: Q01DX005 (ip), vehicle: Klucel (hydroxypropylcellulose) (HPC)",119 % of control and 120 % of control
O=C(O)CC1(c2ccccc2)CCCCC1,T/C,[4],103 % of control
same,T/C,[5],100 % of control
same,T/C,[6],102 % of control
NCCSc1cc(O)c2c(c1N)C(=O)c1ccccc1C2=O,T/C,[1],106 % of control
same,T/C,[2],104 % of control
same,T/C,"dose: 50.0 mg/kg/injection, schedule: Q01DX009 (ip), vehicle: Klucel (hydroxypropylcellulose) (HPC)",106 % of control
same,T/C,"dose: 100.0 mg/kg/injection, schedule: Q01DX009 (ip), vehicle: Klucel (hydroxypropylcellulose) (HPC)",105 % of control
O=C1CS(=O)(=O)C(c2ccccn2)N1CCN1C(=O)CS(=O)(=O)C1c1ccccn1 (stereo not drawn),T/C,"dose: 100.0 mg/kg/injection, schedule: Q01DX001 (ip), vehicle: saline with Tween-80",100 % of control and 101 % of control
same,T/C,"dose: 100.0 mg/kg/injection, schedule: Q04DX002 (ip), vehicle: saline with Tween-80",90 % of control
same,T/C,"dose: 200.0 mg/kg/injection, schedule: Q01DX001 (ip), vehicle: saline with Tween-80",92 % of control and 97 % of control
same,T/C,"dose: 200.0 mg/kg/injection, schedule: Q04DX002 (ip), vehicle: saline with Tween-80",98 % of control
same,T/C,"dose: 400.0 mg/kg/injection, schedule: Q01DX001 (ip), vehicle: saline with Tween-80",89 % of control and 101 % of control
same,T/C,"dose: 400.0 mg/kg/injection, schedule: Q04DX002 (ip), vehicle: saline with Tween-80",91 % of control
On1cnc(=S)c2[nH]cnc21,T/C,[5],90 % of control
same,T/C,"dose: 100.0 mg/kg/injection, schedule: Q04DX003 (ip), vehicle: saline sonified",100 % of control
same,T/C,[6],100 % of control
same,T/C,"dose: 200.0 mg/kg/injection, schedule: Q04DX003 (ip), vehicle: saline sonified",100 % of control
same,T/C,"dose: 400.0 mg/kg/injection, schedule: Q01DX009 (ip), vehicle: saline with Tween-80",109 % of control
same,T/C,"dose: 400.0 mg/kg/injection, schedule: Q04DX003 (ip), vehicle: saline sonified",90 % of control
CC(O)C(NC(=O)OCc1ccccc1)C(=O)NCC(N)=O (stereo not drawn) (Cbz-[ξT]-Gly-NH2),T/C,"dose: 50.0 mg/kg/injection, schedule: Q01DX005 (ip), vehicle: Klucel (hydroxypropylcellulose) (HPC)",101 % of control
same,T/C,"dose: 100.0 mg/kg/injection, schedule: Q01DX005 (ip), vehicle: Klucel (hydroxypropylcellulose) (HPC)",115 % of control
same,T/C,"dose: 200.0 mg/kg/injection, schedule: Q01DX005 (ip), vehicle: Klucel (hydroxypropylcellulose) (HPC)",101 % of control
COc1cc2c(cc1O)CCN[C@H]2C,T/C,"dose: 50.0 mg/kg/injection, schedule: Q01DX005 (ip), vehicle: saline",100 % of control
same,T/C,"dose: 100.0 mg/kg/injection, schedule: Q01DX005 (ip), vehicle: saline",100 % of control
same,T/C,"dose: 200.0 mg/kg/injection, schedule: Q01DX005 (ip), vehicle: saline",108 % of control
CCOC(=O)c1sc(N)nc1C,T/C,"dose: 9.0 mg/kg/injection, schedule: Q01DX009 (ip), vehicle: saline with Tween-80",111 % of control
same,T/C,"dose: 18.0 mg/kg/injection, schedule: Q01DX009 (ip), vehicle: saline with Tween-80",90 % of control
same,T/C,[3],105 % of control
same,T/C,"dose: 36.0 mg/kg/injection, schedule: Q01DX009 (ip), vehicle: saline with Tween-80",99 % of control
same,T/C,[4],106 % of control and 112 % of control and 113 % of control
same,T/C,[5],108 % of control and 115 % of control and 97 % of control
same,T/C,[6],102 % of control and 112 % of control
CC(C)(C)c1ccc(C(=O)NCSCC(NC(=O)CCC(N)C(=O)O)C(=O)NCC(=O)O)cc1 (stereo not drawn),T/C,[7],98 % of control
same,T/C,"dose: 120.0 mg/kg/injection, schedule: Q01DX005 (ip), vehicle: saline with Tween-80",104 % of control
same,T/C,"dose: 240.0 mg/kg/injection, schedule: Q01DX005 (ip), vehicle: saline with Tween-80",86 % of control
CCOC(=O)C(=C(SC)SC)[n+]1ccc(C)cc1,T/C,"dose: 12.5 mg/kg/injection, schedule: Q04DX002 (ip), vehicle: saline with Tween-80",104 % of control
CC1(C)N=C(N)N=C(N)N1c1ccc(OCC(=O)N2CCOCC2)cc1,T/C,"dose: 50.0 mg/kg/injection, schedule: Q04DX003 (ip), vehicle: saline",100 % of control
same,T/C,"dose: 66.0 mg/kg/injection, schedule: Q01DX009 (ip), vehicle: saline sonified",110 % of control
same,T/C,"dose: 100.0 mg/kg/injection, schedule: Q01DX009 (ip), vehicle: saline sonified",120 % of control
same,T/C,"dose: 100.0 mg/kg/injection, schedule: Q04DX003 (ip), vehicle: saline",95 % of control
O=S(=O)(F)c1ccc(O)cc1,T/C,"dose: 15.0 mg/kg/injection, schedule: Q01DX005 (ip), vehicle: saline",96 % of control
same,T/C,"dose: 30.0 mg/kg/injection, schedule: Q01DX005 (ip), vehicle: saline",99 % of control
same,T/C,"dose: 60.0 mg/kg/injection, schedule: Q01DX005 (ip), vehicle: saline",99 % of control and 97 % of control
CCOC(=O)C1C2CCC(O2)C1C#N (stereo not drawn),T/C,[8],100 % of control
same,T/C,"dose: 30.0 mg/kg/injection, schedule: Q01DX005 (ip), vehicle: saline with Tween-80",101 % of control
same,T/C,[7],93 % of control
C1CC[N-]CC1.C1CC[N-]CC1.[Cl][Cd][Cl],T/C,"dose: 0.2 mg/kg/injection, schedule: Q01DX009 (ip), vehicle: water",95 % of control
same,T/C,"dose: 0.39 mg/kg/injection, schedule: Q01DX009 (ip), vehicle: water",96 % of control
same,T/C,"dose: 0.78 mg/kg/injection, schedule: Q01DX009 (ip), vehicle: other",90 % of control
same,T/C,"dose: 0.78 mg/kg/injection, schedule: Q01DX009 (ip), vehicle: water",98 % of control
same,T/C,"dose: 1.56 mg/kg/injection, schedule: Q01DX009 (ip), vehicle: other",90 % of control
same,T/C,"dose: 3.13 mg/kg/injection, schedule: Q01DX009 (ip), vehicle: other",93 % of control
CCOC(=O)CCC#N,T/C,[9],99 % of control and 105 % of control
same,T/C,[10],107 % of control and 108 % of control
same,T/C,"dose: 200.0 mg/kg/injection, schedule: Q01DX009 (ip), vehicle: saline",105 % of control and 106 % of control
same,T/C,"dose: 400.0 mg/kg/injection, schedule: Q01DX009 (ip), vehicle: saline",100 % of control
CC(=O)SC(C(=O)O)C(SC(C)=O)C(=O)O (stereo not drawn),T/C,"dose: 25.0 mg/kg/injection, schedule: Q01DX009 (ip), vehicle: other",106 % of control
same,T/C,"dose: 50.0 mg/kg/injection, schedule: Q01DX009 (ip), vehicle: other",115 % of control
same,T/C,"dose: 100.0 mg/kg/injection, schedule: Q01DX009 (ip), vehicle: other",102 % of control
same,T/C,"dose: 200.0 mg/kg/injection, schedule: Q01DX009 (ip), vehicle: other",89 % of control
O=[N+]([O-])/C=C/c1ccccc1,T/C,"dose: 5.0 mg/kg/injection, schedule: Q01DX009 (ip), vehicle: saline sonified",100 % of control
same,T/C,"dose: 10.0 mg/kg/injection, schedule: Q01DX009 (ip), vehicle: saline sonified",100 % of control
same,T/C,"dose: 20.0 mg/kg/injection, schedule: Q01DX009 (ip), vehicle: saline sonified",100 % of control
CC(S)c1nc2ccccc2[nH]1 (stereo not drawn),T/C,"dose: 100.0 mg/kg/injection, schedule: Q01DX001 (ip), vehicle: Klucel + Tween-80",100 % of control
same,T/C,"dose: 200.0 mg/kg/injection, schedule: Q01DX001 (ip), vehicle: Klucel + Tween-80",97 % of control
same,T/C,"dose: 400.0 mg/kg/injection, schedule: Q01DX001 (ip), vehicle: Klucel + Tween-80",111 % of control
C1=C(N2CCCC2)C(=[N+]2CCCC2)C(N2CCCC2)=C1,T/C,"dose: 3.75 mg/kg/injection, schedule: Q01DX005 (ip), vehicle: saline with Tween-80",101 % of control
same,T/C,"dose: 7.5 mg/kg/injection, schedule: Q01DX005 (ip), vehicle: saline with Tween-80",100 % of control
same,T/C,[8],105 % of control
CC(=O)c1ccc2c(c1)-c1ccccc1C(=O)C2=O,T/C,"dose: 25.0 mg/kg/injection, schedule: Q01DX009 (ip), vehicle: saline",98 % of control
same,T/C,[9],106 % of control and 110 % of control
same,T/C,[10],113 % of control and 119 % of control
